# Measured values published in patent publication US20080160101A1, “Composition For Use Against One Or More Pathogens” (Bionext, priority 2004, published 2008).
# Values joined by “and” are separate entries in the source; they are usually repeats but may differ in a detail not shown here. Equal entries are not always repeated. “Also recorded” adds a separate entry of the source.
# Assays:
# Penicillium expansum = test: Protection of wounded apples against postharvest rot caused by Penicillium expansum (lesion diameter, percentage of protection); assay type: in vivo; parameters: Average infection: unit not given here
# Experimental: Apples (Malus domestica Borkh cv. Golden) were harvested from commercial orchards maintained with standard cultural practices in Belgium and placed in regular long term storage. Commercial class I fruits were used. They were bought from wholesale dealers and stored in a cold room at 4±1° C. for maximum 15 days before use.
# Penicillium expansum (blue mould) strains were initially isolated from apples in Gembloux Belgium. Conidia from pathogen were put in suspension in a glycerol solution (25%) and stored at −70° C. Starting from this stored material, the fungal strain was transferred to PDA medium at 25° C. Conidial suspensions were prepared in an aqueous sterile solution of Tween 20 (0.05%), and were adjusted to the required concentration (10^6 spores/ml) using a Bürker cell.
# The antagonistic yeast strain was Candida oleophila Montrocher deposited under number 40564 at the BBCM™/MUCL Culture Collection of the Mycotheque de l'Universite Catholique de Louvain, hereinafter designated as “strain 0”.
# This antagonistic yeast strain was isolated from apple surface and stored at −70° C. in a glycerol solution (25%). Before use, the yeast strain was subcultured three times successively at 24 hours intervals on PDA (Potato Dextrose Agar). At the third generation, yeast cells were removed from the culture medium and suspended in isotonic water (NaCl 0.85%). Suspension concentrations were adjusted to the required values after the establishment of a regression line in relation with the micro-organisms suspension absorbance (at 595 nm) and the number of colony forming units (cfu) of the same suspension spread onto PDA.
# Fruits were disinfected by dipping for 2 minutes in sodium hypochlorite (10% of the commercial product). They were rinsed in sterile water and dried out under laminar flux before being wounded by removing 4 mm diameter and 2-3 mm deep blocks of tissue from three sites 4-5 cm apart along one side of the surface of the fruits.
# The wounds were treated by application of 40 μl of compositions of the state of the art or compositions according to the invention.
# After a 24 h at 20° C. incubation period in plastic boxes, the wounds were inoculated with 40 μl of the respective conidial suspensions of the pathogens. The fruits were incubated at 25° C.
# […] At least five fruits (15 wounds) were used per treatment. Most of the time, 15 fruits and 45 wounds were used per treatment.
# The percentage of protection provided by the different treatments was calculated from the diameter of lesion caused by the fruit rot agent after the incubation time using the following formula: […]
# wherein Y is the percentage of protection; DT is the mean diameter of lesions for the untreated control and DX is the mean diameter of lesions for the treated fruits.
# The effect of the compositions according to the invention against postharvest apple rots caused by P. expansum was evaluated under controlled conditions.
# (§1) The apples were wounded as described in Example 2 and treated by application of compositions comprising a salt according to the invention and 10^5 cfu C. oleophila, or compositions of the state of the art.
# After incubation, the wounds were inoculated with Penicillum expansum. The fruits are further incubated. […] The percentage of protection provided by the different treatments was calculated as described in Example 2.
# as §1
# Botrytis cinerea = test: Protection of wounded apples against Botrytis cinerea (lesion diameter, percentage of protection); assay type: in vivo; settings: for Average infection / Efficiency %: Table 10, salt + strain O 10^5, CaCl2 20 g/l, CG 2 g/l, CGt 1.805 g/l, TC 0.848 g/l, PC 0.964 g/l, 5 days; for results of combination of salt with C. oleophila, in words (conclusions): salt combined with C. oleophila, apples, salts tested only in Example 5
# [1] = Table 6a, salt + strain O 10^5, CG 2 g/l, TC 0.87 g/l, CCa 0.47 g/l, CL 1.34 g/l, CLG 1.3 g/l, CA 1.96 g/l, 7 days
# [2] = Table 6b, salt + strain O 10^5, CG 2 g/l, TC 0.87 g/l, CCa 0.47 g/l, CL 1.34 g/l, CLG 1.3 g/l, CA 1.96 g/l, 7 days
# [3] = Table 8, salt + strain O 10^5, CaCl2 20 g/l, CG 2 g/l, CCa 0.47 g/l, CBC 0.762 g/l, CPT 0.486 g/l, CPM 1.485 g/l, 7 days
# [4] = Table 9, salt + strain O 10^5, CaCl2 20 g/l, CG 2 g/l, CCa 0.47 g/l, CBC 0.762 g/l, CPT 0.486 g/l, CPM 1.485 g/l, 11 days
# [5] = salt + strain O 10^5 cfu/ml compared with strain O alone
# [6] = salt combined with C. oleophila, apples
# [7] = Table 7, salt + strain O 10^5, CaCl2 20 g/l, CG 2 g/l, TC 0.87 g/l, CCA 0.47 g/l
# [8] = Table 3, first series, CG 2 g/l + strain O 10^5 cfu/ml, 7 days
# [9] = Table 4, second series, CG 2 g + strain O 10^5 cfu/ml, 7 days
# [10] = Table 5, third series, CG 2 g + strain O 10^5 cfu/ml, 7 days
Compound,Efficiency % (Botrytis cinerea),Average infection (Penicillium expansum; [1]),Efficiency % (Penicillium expansum; [1]),Average infection (Penicillium expansum; [2]),Efficiency % (Penicillium expansum; [2]),Average infection (Penicillium expansum; [3]),Efficiency % (Penicillium expansum; [3]),Average infection (Penicillium expansum; [4]),Efficiency % (Penicillium expansum; [4]),"results of combination of salt with C. oleophila, in words (conclusions) (Penicillium expansum; [6])",also measured
"O=C([O-])[O-].[Ca+2] [CCa, calcium carbonate]",,,,,,,,,,,"Efficiency % (Penicillium expansum; in vivo): 77.9% and 92.8% and 97.2% and 88.6% and 85.1%; protection against P. expansum, in words (Penicillium expansum; in vivo): good protection; results of combination of salt with C. oleophila, in words (conclusions) (Penicillium expansum; in vivo): Very good results"
"N[C@@H](CCC(=O)[O-])C(=O)[O-].[Ca+2] [CGt, calcium glutamate]",51.3%,,,,,,,,,,Average infection (Botrytis cinerea): 0.8
"CC(O)C(=O)[O-].CC(O)C(=O)[O-].[Ca+2] (stereo not drawn) [CL, calcium lactate]",,7.7,58.1%,6.06,82.5%,,,,,,"results of combination of salt with C. oleophila, in words (conclusions) (Penicillium expansum; in vivo): Very good results"
"O=[N+]([O-])[O-].O=[N+]([O-])[O-].[Ca+2] [CN, Calcium Nitrate, reference compound]",,,,,,,,,,,"Average infection (Penicillium expansum; in vivo): 7.6 and 10.9; protection against P. expansum, in words (Penicillium expansum; in vivo): less efficient"
"O=P([O-])(O)O.O=P([O-])(O)O.[Ca+2] [CPM, calcium phosphate monobasic]",,,,,,0.1,94.4%,0.7,86.6%,Very good results,"protection against P. expansum, in words (Penicillium expansum; [5]): good protection"
"O=P([O-])([O-])[O-].O=P([O-])([O-])[O-].[Ca+2].[Ca+2].[Ca+2] [CPT, calcium phosphate tribasic]",,,,,,0.4,84.1%,0.9,82.1%,Very good results,"protection against P. expansum, in words (Penicillium expansum; [5]): good protection"
"[Ca+2].[Cl-].[Cl-] [CaCl2, reference compound]",82.4%,,,,,0.3,87.6%,0.6,87.7%,,Average infection (Penicillium expansum; [7]): 0.7; Efficiency % (Penicillium expansum; [7]): 97.4%; Average infection (Botrytis cinerea): 0.3
"O=C([O-])CC(O)(CC(=O)[O-])C(=O)[O-].[K+].[K+].[K+] [PC, potassium citrate]",66.4%,,,,,,,,,,"Average infection (Botrytis cinerea): 0.5; results of combination of salt with C. oleophila, in words (conclusions) (Botrytis cinerea): Very good results"
"O=C([O-])CC(O)(CC(=O)[O-])C(=O)[O-].O=C([O-])CC(O)(CC(=O)[O-])C(=O)[O-].[Ca+2].[Ca+2].[Ca+2] [TC, tricalcium citrate]",78.9%,2.8,84.8%,6.67,83.3%,,,,,,"Average infection (Penicillium expansum; [7]): 1.0; Efficiency % (Penicillium expansum; [7]): 96.4%; results of combination of salt with C. oleophila, in words (conclusions) (Penicillium expansum; in vivo): Very good results; Average infection (Botrytis cinerea): 0.3"
N[C@@H](CCC(=O)[O-])C(=O)[O-].[K+].[K+] [potassium glutamate],,,,,,,,,,,"results of combination of salt with C. oleophila, in words (conclusions) (Botrytis cinerea): Very good results"
calcium ascorbate,,5.4,70.9%,5.31,86.7%,,,,,,"results of combination of salt with C. oleophila, in words (conclusions) (Penicillium expansum; in vivo): Very good results"
calcium bicarbonate [CBC],,,,,,0.5,76.5%,2.1,59.0%,Very good results,"protection against P. expansum, in words (Penicillium expansum; [5]): good protection"
calcium gluconate [CG],60.7%,4.8,73.8%,6.50,74.2%,0.5,77.4%,1.5,70.5%,Very good results,"Average infection (Penicillium expansum; [8]): 1.5; Protection Efficiency % (Penicillium expansum; [8]): 87.3%; Average infection (Penicillium expansum; [9]): 1.2; Protection Efficiency % (Penicillium expansum; [9]): 90.7%; Average infection (Penicillium expansum; [10]): 2.7; Protection Efficiency % (Penicillium expansum; [10]): 79.3%; Average infection (Penicillium expansum; [7]): 1.7; Efficiency % (Penicillium expansum; [7]): 93.5%; protection against P. expansum, in words (Penicillium expansum; [5]): improved the protection; also recorded: better and enhanced efficacy; protection against P. expansum, in words (Penicillium expansum; salt + strain O 10^5 cfu/ml compared with strain O alone, listed as calcium gluconate): good protection"
calcium lactogluconate [CLG],,5.6,69.4%,6.21,86.3%,,,,,Very good results,
